Data reported in EP4778511A1, “PHARMACEUTICAL COMPOSITION, DRUG-LOADED ROD CORE, IMPLANT, PREPARATION METHOD THEREFOR, AND USE THEREOF” (SHENYANG XINGHUA PHARMACEUTICAL TECHNOLOGY CO., LTD, priority 2023, dated 2025).
Read-outs that look alike come from different tables or passages of the source.

Key:
[1] = reagent table, cited from earlier work
[2] = Average particle size and PDI of paliperidone after wet grinding (nanonization); type: physicochemical
Description: Active pharmaceutical ingredient: stabilizer = 5:1. The ball mill speed was 400 r·min^-1, the grinding media was 0.2 mm of zirconia beads with a volume of 20 mL, and the grinding time was 50 min. The effects of stabilizer types Poloxamer 188 (P188), Tween 80, Poloxamer 407 (P407), SDS, HPMC on the average particle size and PDI (PDI is a dimensionless value reflecting the width of particle size distribution, ranging from 0 to 1, a smaller value indicates a more uniform and narrower particle size distribution) of the active pharmaceutical ingredient after grinding are investigated. Table 29 Effects of different stabilizers on average particle size and PDI
Active pharmaceutical ingredient: stabilizer = 5:1. The ball mill speed was 400 r·min^-1, Poloxamer 188 was used as the stabilizer, the grinding media was 20 mL, and the grinding time was 50 min. The effects of 0.1 mm, 0.2 mm, and 0.3 mm zirconia beads on the average particle size and PDI of the active pharmaceutical ingredient after grinding were investigated. Table 30 Effects of different types of grinding media on average particle size and PDI
Active pharmaceutical ingredient: stabilizer = 5:1. The ball mill speed was 400 r·min^-1, Poloxamer 188 was used as the stabilizer, the grinding media was 0.1 mm zirconia beads. The effects of grinding time for 15 min, 25 min, 35 min, 45 min, 50 min, 60 min on the average particle size and PDI of the active pharmaceutical ingredient after grinding were investigated. Table 31 Effects of different grinding time on average particle size and PDI

[3] = stabilizer HPMC, 0.2 mm zirconia beads, grinding 50 min
[4] = stabilizer P188, 0.1 mm zirconia beads, grinding 15 min
[5] = stabilizer P188, 0.1 mm zirconia beads, grinding 25 min
[6] = stabilizer P188, 0.1 mm zirconia beads, grinding 35 min
[7] = stabilizer P188, 0.1 mm zirconia beads, grinding 45 min
[8] = stabilizer P188, 0.1 mm zirconia beads, grinding 50 min
[9] = stabilizer P188, 0.1 mm zirconia beads, grinding 60 min
[10] = stabilizer P188, 0.2 mm zirconia beads, grinding 50 min
[11] = stabilizer P188, 0.3 mm zirconia beads, grinding 50 min
[12] = stabilizer P407, 0.2 mm zirconia beads, grinding 50 min
[13] = stabilizer SDS, 0.2 mm zirconia beads, grinding 50 min
[14] = stabilizer Tween, 0.2 mm zirconia beads, grinding 50 min

Question: Which solubility [1] does the source give for `N[C@@H](Cc1cc(I)c(Oc2cc(I)c(O)c(I)c2)c(I)c1)C(=O)O` [levothyroxine sodium] here?
Answer: The solubility was “levothyroxine sodium (purity 99%), molecular weight: 800.87, solubility: 150 µg/ml”.

Question: Which Average particle size [2, 3] does the source give for `Cc1nc2n(c(=O)c1CCN1CCC(c3noc4cc(F)ccc34)CC1)CCCC2O` (stereo not shown) [Paliperidone] here?
Answer: The Average particle size was 330 nm.

Question: And the PDI [2, 3]?
Answer: The PDI was 0.18.

Question: And the Average particle size [2, 4]?
Answer: Its Average particle size is 820 nm.

Question: And the PDI [2, 4]?
Answer: Its PDI is 0.13.

Question: And the Average particle size [2, 5]?
Answer: Its Average particle size is 646 nm.

Question: And the PDI [2, 5]?
Answer: The PDI was 0.14.

Question: And the Average particle size [2, 6]?
Answer: Its Average particle size is 430 nm.

Question: And the PDI [2, 6]?
Answer: Its PDI is 0.09.

Question: And the Average particle size [2, 7]?
Answer: Its Average particle size is 246 nm.

Question: And the PDI [2, 7]?
Answer: The PDI was 0.08.

Question: What about the Average particle size [2, 8] of the same compound?
Answer: Its Average particle size is 220 nm.

Question: What about the PDI [2, 8] of the same compound?
Answer: The PDI was 0.06.

Question: What about the Average particle size [2, 9] of the same compound?
Answer: The Average particle size was 253 nm.

Question: And the PDI [2, 9]?
Answer: The PDI was 0.12.

Question: And the Average particle size [2, 10]?
Answer: Its Average particle size is 240 nm.

Question: And the PDI [2, 10]?
Answer: The PDI was 0.15.

Question: And the Average particle size [2, 11]?
Answer: The Average particle size was 420 nm.

Question: And the PDI [2, 11]?
Answer: Its PDI is 0.25.

Question: What about the Average particle size [2, 12] of the same compound?
Answer: Its Average particle size is 417 nm.

Question: What about the PDI [2, 12] of the same compound?
Answer: Its PDI is 0.26.

Question: And the Average particle size [2, 13]?
Answer: The Average particle size was 320 nm.

Question: And the PDI [2, 13]?
Answer: The PDI was 0.21.

Question: What about the Average particle size [2, 14] of the same compound?
Answer: The Average particle size was 250 nm.

Question: What about the PDI [2, 14] of the same compound?
Answer: The PDI was 0.07.

Question: What about the solubility [1] of the same compound?
Answer: The solubility was “Paliperidone (purity 98%), molecular weight: 426.48, solubility: 30 µg/ml”.

Question: For `CC(=O)O[C@H]1C(=O)[C@@]2(C)[C@H]([C@H](OC(=O)c3ccccc3)[C@]3(O)C[C@H](OC(=O)[C@H](O)[C@@H](NC(=O)c4ccccc4)c4ccccc4)C(C)=C1C3(C)C)[C@]1(OC(C)=O)CO[C@@H]1C[C@@H]2O` [Paclitaxel], which solubility ([1]; in water) is on record?
Answer: The solubility was “Paclitaxel (purity 99%), molecular weight: 853.92, insoluble in water”.

Question: Which solubility ([1]; in water) does the source give for `C#C[C@]1(O)C=C[C@H]2[C@@H]3CCC4=CC(=O)CC[C@@H]4[C@H]3CC[C@@]21CC` [Gestodene] here?
Answer: Its solubility is “Gestodene (purity 98%), molecular weight: 310.43, insoluble in water”.
